Laboratory results as given in US9157064B2, “Methods for generating inner ear cells in vitro” (The Board of Trustees of the Leland Stanford Junior …, priority 2011, dated 2015).
Entries after “also recorded” stand apart in the source; their conditions may differ.

Key:
Format in all cases: cell-based, mouse
[1] = test system: ESC-derived hair cell-like cell; assay: Mechanically induced currents of ESC-derived hair cell-like cells (patch clamp); conditions: local application of 1 mM DHSM to hair bundles, then mechanical stimulation
Experimental: (§1) nGFP-expressing hair cell-like cells were identified by fluorescence microscopy, and nearby hair bundle-like protrusions were imaged with a […] objective with brightfield optics. Recordings were conducted with an Axoclamp 200a (Axon Instruments) amplifier, interfaced with a DIGIDATA® 1332 board (Axon), and jClamp Software (Scisoft). Mechanical stimulation was done with a stiff glass probe attached to a piezo stack.
(§2) More specifically, cultured cells were placed onto the stage of an OLYMPUS® BX 51 fixed stage upright microscope and imaged using a 100× dipping objective using brightfield optics. Images were collected using a C2400 NARISHIGE® analog camera coupled via a framegrabber to a PC computer using Image J software. Soda glass electrodes, coated with ski wax (MR. ZOG'S SEX WAX®) to limit stray capacitance, of resistances 3-5MΩ, were used to record from both ES and iPS cells. The culture medium was replaced during electrophysiological recordings with a solution containing (in mM) 140 NaCl, 5 KCl, 1 MgCl2, 2.5 CaCl, 10 HEPES, 6 glucose, 2 pyruvate, 2 ascorbate, 2 creatine. […] Data was analyzed with ORIGIN® software (Microcal). […]
(§3) Adaptation is a complex process in which hair bundle dynamic range is enhanced and sensitivity maintained over large displacements (Eatock, 2000). […] The fast time constant measured was 0.5±0.4 ms (n=5) and the slow was 11±5 ms (n=5). […]

[2] = test system: iPSC-derived hair cell-like cell; assay: Mechanically induced currents of iPSC-derived hair cell-like cells (patch clamp); conditions: local application of 1 mM DHSM to hair bundles, then mechanical stimulation
Experimental: as §1, §2, §3

[3] = test system: ESC-derived cultures; assay: Otic induction of ESC-derived embryoid body cultures (Pax2 immunostaining); conditions: ESC derivatives; not treated with any of the three initial factors, but treated with bFGF
Experimental: (§4) Embryoid bodies were transferred into fibronectin-coated 4-well dishes (Greiner) at 30 embryoid bodies per well and cultured for three days in DMEM/F12 (Invitrogen, mixed 1:1) supplemented with N2 and B27 (Invitrogen), bFGF (R&D Systems, 25 ng/ml), heparin sulfate (Sigma, 50 ng/ml), and ampicillin ([…]). FGF3 (recombinant human FGF-3, R&D Systems) and FGF10 (recombinant human FGF-10, R&D Systems) were used at 25 ng/ml in parallel experiments. The FGF receptor antagonist SU5402 (a gift from Pfizer R&D) was used at […]. After FGF-treatment, the cells were detached using 0.05% trypsin/EDTA (Sigma) in PBS, mildly triturated, and passed 1:10 into individual wells of 4-well dishes coated with either fibronectin, gelatin, MEFs, or mitotically inactivated embryonic (E18) chicken utricle stromal cells. Utricle stromal cells were prepared from 20 utricles whose sensory epithelia were removed after 40 min treatment with 0.5 mg/ml thermolysin (Sigma) in DMEM/F12 at 37 C. After addition of 5% serum, the sensory epithelia were removed and used in unrelated experiments. […]
(§5) For immunocytochemistry, the cells were fixed with 4% paraformaldehyde in PBS for 15 min at room temperature. […] Images were acquired with a Zeiss Axioimager/LSM 5 Exciter fluorescence and confocal microscope. […]

[4] = test system: iPSC-derived cultures; assay: Otic induction of iPSC-derived embryoid body cultures (Pax2 immunostaining); conditions: iPSC derivatives; not treated with any of the three initial factors, but treated with bFGF
Experimental: as §4, §5

[5] = test system: ESC-derived embryoid bodies; assay: Suppression of meso- and endodermal differentiation in ESC-derived embryoid bodies (Brachyury/GATA6 immunostaining); conditions: single factor
Experimental: (§6) ES cell line C9 and iPS cell line #25-5 were used for all guidance experiments. MEF feeder cells were removed either by weaning the cells off for several passages or by pre-culturing the cells for 40 min allowing MEFs to attach. For embryoid body formation, the cells were dissociated with 0.25% trypsin-EDTA (Invitrogen) and cultured in poly(2-hydroxyethyl methacrylate)-coated 6-well cell suspension plates (Greiner). Coating was done by covering the plates with 1 ml of 2% poly(2 hydroxyethyl methacrylate) (Sigma) solution in 1:1 ethanol/acetone. After 2 min, the solution was completely aspirated and the plates were dried with open lid for 20 min in a cell culture cabinet. After three washes with PBS, the ES and iPS cells were added at a density of 50 cells/ml and cultured for 5 days in DMEM (Invitrogen) with 15% FBS, 0.1 mM MEM non-essential amino acids, […] 2-mercaptoethanol, 2 mM L-glutamine and […] ampicillin. For otic induction experiments, the following growth factors or reagents were added to the medium: recombinant mouse Dickkopf related protein 1 (Dkk-1) at 100 ng/ml (R&D Systems), SIS3 at […] (Sigma), and IGF1 at 10 ng/ml (Sigma). […]
as §5

[6] = test system: iPSC-derived embryoid bodies; assay: Suppression of meso- and endodermal differentiation in iPSC-derived embryoid bodies (Brachyury/GATA6 immunostaining); conditions: single factor
Experimental: as §6, §5

For CN[C@@H]1[C@H](O[C@H]2[C@H](O[C@H]3[C@H](O)[C@@H](O)[C@H](NC(=N)N)[C@@H](O)[C@@H]3NC(=N)N)O[C@@H](C)[C@]2(O)CO)O[C@@H](CO)[C@H](O)[C@H]1O [DHSM, dihydrostreptomycin], the “mechanically induced (evoked) currents” value [1] was “antagonized reversibly; also recorded: reversibly blocked” and the “mechanically induced (evoked) currents” value [2] was “antagonized reversibly; also recorded: reversibly blocked”.

For “bFGF: fibroblast growth factor FGF2 (bFGF), general otic inducer”, the Pax2-expressing cells [3] was 0.05±0.04% and the Pax2-expressing cells [4] was 0.1±0.09%.

B1: Dkk1: recombinant mouse Dickkopf related protein 1, Wnt inhibitor (protein, UniProt O54908 32-272, looked up)
Dickkopf-related protein 1: TLNSVLINSNAIKNLPPPLGGAGGQPGSAVSVAPGVLYEGGNKYQTLDNYQPYPCAEDEECGSDEYCSSPSRGAAGVGGVQICLACRKRRKRCMRHAMCCPGNYCKNGICMPSDHSHFPRGEIEESIIENLGNDHNAAAGDGYPRRTTLTSKIYHTKGQEGSVCLRSSDCAAGLCCARHFWSKICKPVLKEGQVCTKHKRKGSHGLEIFQRCYCGEGLACRIQKDHHQASNSSRLHTCQRH
With B1 the “number of Brachyury-positive cells, factor alone” value [5] was “significantly reduced” and the “Brachyury-expressing cell population, factor alone” value [6] was “significantly reduce”.
